Data published in patent publication US20110237566A1, “Therapeutic Macrolide Compounds and Their Use” (MERLION PHARMACEUTICALS PTE LTD, priority 2008, published 2011).

How the values were obtained:
[1] = test system: HL60 human acute myelocytic leukemia (AML) cell; assay: Growth inhibition (cytotoxicity), HL60A assay, Cell Titer Glo; format: cell-based; settings: HL-60, 72 h, HL60 cells, 72 hour incubation
Protocol: (§1) The cytotoxicity of each of the MC compounds as described herein was evaluated in the following cell types: A549 human alveolar epithelial cell, PC3 human prostate carcinoma cell, COLO205 human colon adenocarcinoma cell, HEPG2 human hepatoma, OVCAR3 human ovary adenocarcinoma cell, and HL60 human acute myelocytic leukemia (AML) cell.
(§2) A549, PC3, COLO205 and HEPG2 cells were cultured in DMEM (Invitrogen Corporation) with 10% fetal bovine serum, whereas OVCAR3 and HL60 were cultured in the same medium but with 20% fetal bovine serum. For cytotoxocoty measurements the cells were seeded in 96 or 384 well tissue culture treated microtitre plates overnight. Compounds were diluted in appropriate buffers and added to the cells the next day. Following a further 72 hour incubation, cell viability was determined using Cell Titer Glo (Promega Corporation) according to the manufacturers' instructions, and the luminescence measured in Luminoskan Ascent (Thermo Fisher Scientific Inc.).

[2] = test system: OVCAR3 human ovary adenocarcinoma cell; assay: Growth inhibition (cytotoxicity), OVCAR3 assay, Cell Titer Glo; format: cell-based; settings: OVCAR3 cells, 72 hour incubation
Protocol: as §1, §2

[3] = Microsomal stability assay; format: in vitro ADME; settings: human, human liver microsomes, pH 7.4, human liver microsomes, 50 μm, 37° C.; read-out: T1/2, 50 μm microsomal stability assay
Protocol: 50 μL test sample (50 mM), 25 μL human liver microsomes (20 mg/ml, BD Gentest, catalog no. 452161), 281 μL potassium phosphate buffer (100 mM, pH 7.4), 5 μL NaDPH regenerating system, solution B (BD Biosciences, catalog no. 451200), and 114 μL of water were pre-incubated for 5 min at 37° C. The reaction was initiated by the addition of 25 μL NaDPH regenerating system, solution A (BD Biosciences, catalog no. 451220). After an incubation period of 0, 15, 30, and 60 min at 37° C., 100 μL of the reaction mixture was transferred to an eppendorf tube, followed by addition of 100 μL chilled acetonitrile to quench the reaction. The sample was then centrifuged at 14,000 rpm for 5 min. The supernatant was submitted for LCMS analysis.

[4] = test system: PC3 human prostate carcinoma cell; assay: Growth inhibition (cytotoxicity), PC3A assay, Cell Titer Glo; format: cell-based; settings: PC-3, 72 h, PC3 cells, 72 hour incubation
Protocol: as §1, §2

[5] = test system: COLO205 human colon adenocarcinoma cell; assay: Growth inhibition (cytotoxicity), COLO205 assay, Cell Titer Glo; format: cell-based; settings: COLO 205, 72 h, COLO205 cells, 72 hour incubation
Protocol: as §1, §2

[6] = test system: A549 human alveolar epithelial cell; assay: Growth inhibition (cytotoxicity), A549 assay, Cell Titer Glo; format: cell-based; settings: A549, 72 h, A549 cells, 72 hour incubation
Protocol: as §1, §2

HEPG2 human hepatoma = assay: Growth inhibition (cytotoxicity), HEPG2A assay, Cell Titer Glo; format: cell-based; settings: HEPG2 cells, 72 hour incubation
Protocol: as §1, §2

Molecule `CC[C@H](OC)[C@@H](C)[C@H]1O[C@@H]1C(NCc1ccc(F)cc1)C(C)(O)/C=C/C=C(\C)C1OC(=O)C[C@H](O)CC[C@@](C)(O)[C@@H](OC(C)=O)/C=C/[C@@H]1C.O=CO` (single isomer, unassigned) [MC-006c] has an IC50 [1] of no more than 100 nM, an IC50 ([2]; Homo sapiens, OVCAR-3, 72 h) of no more than 100 nM and a half-life at 50 μM [3] greater than 30 min. It also gave an IC50 [4] of no more than 100 nM and an IC50 [5] of no more than 100 nM.
`CC[C@H](OC)[C@@H](C)[C@H]1O[C@@H]1C(NCc1ccncc1)C(C)(O)/C=C/C=C(\C)C1OC(=O)C[C@H](O)CC[C@@](C)(O)[C@@H](OC(C)=O)/C=C/[C@@H]1C` (single isomer, unassigned) [MC-007b] showed an IC50 [6] of no more than 1000 nM and an IC50 [1] of no more than 100 nM.
`CC[C@H](OC)[C@@H](C)[C@H]1O[C@@H]1C(NCc1ccc(Cl)cc1)C(C)(O)/C=C/C=C(\C)C1OC(=O)C[C@H](O)CC[C@@](C)(O)[C@@H](OC(C)=O)/C=C/[C@@H]1C` (single isomer, unassigned) [MC-016a] showed an IC50 [1] of no more than 100 nM, an IC50 ([2]; Homo sapiens, OVCAR-3, 72 h) of no more than 100 nM and an IC50 (HEPG2 human hepatoma; Homo sapiens, HepG2, 72 h) of no more than 100 nM. It also gave an IC50 [4] of no more than 100 nM and an IC50 [5] of no more than 100 nM.
In the case of `CC[C@H](OC)[C@@H](C)[C@H]1O[C@@H]1C(NCc1ccc(OC)cc1)C(C)(O)/C=C/C=C(\C)C1OC(=O)C[C@H](O)CC[C@@](C)(O)[C@@H](OC(C)=O)/C=C/[C@@H]1C` (stereo partly drawn) [MC-005], the IC50 ([2]; Homo sapiens, OVCAR-3, 72 h) is reported as no more than 100 nM, the IC50 [2] is reported as 61 nM and the IC50 (HEPG2 human hepatoma) is reported as 57 nM. It also gave an IC50 (HEPG2 human hepatoma; Homo sapiens, HepG2, 72 h) of no more than 100 nM and a half-life at 50 μM [3] of 20 min.
In the case of `CC[C@H](OC)[C@@H](C)[C@H]1O[C@@H]1C(NCc1ccncc1)C(C)(O)/C=C/C=C(\C)C1OC(=O)C[C@H](O)CC[C@@](C)(O)[C@@H](OC(C)=O)/C=C/[C@@H]1C` (stereo partly drawn) [MC-007c], the IC50 [6] is reported as no more than 1000 nM, the IC50 [1] is reported as no more than 100 nM and the IC50 [5] is reported as no more than 100 nM.
In the case of `CC[C@H](OC)[C@@H](C)[C@H]1O[C@@H]1C(NCc1ccc(Cl)c(Cl)c1)C(C)(O)/C=C/C=C(\C)C1OC(=O)C[C@H](O)CC[C@@](C)(O)[C@@H](OC(C)=O)/C=C/[C@@H]1C` (stereo partly drawn) [MC-059], the IC50 ([2]; Homo sapiens, OVCAR-3, 72 h) is reported as no more than 100 nM, the IC50 (HEPG2 human hepatoma; Homo sapiens, HepG2, 72 h) is reported as no more than 100 nM and the IC50 [4] is reported as no more than 100 nM. The IC50 [5] was no more than 100 nM.
